Test results taken from ChEMBL document CHEMBL1128442, “8-Substituted O6-benzylguanine, substituted 6(4)-(benzyloxy)pyrimidine, and related derivatives as inactivators of human O6-alkylguanine-DNA alkyltransferase” (J Med Chem, 1995).

Experiments:
[1] = molecular target: T1, Methylated-DNA--protein-cysteine methyltransferase (Homo sapiens) (UniProt P16455); conditions: HT-29
T1 sequence (whole entry): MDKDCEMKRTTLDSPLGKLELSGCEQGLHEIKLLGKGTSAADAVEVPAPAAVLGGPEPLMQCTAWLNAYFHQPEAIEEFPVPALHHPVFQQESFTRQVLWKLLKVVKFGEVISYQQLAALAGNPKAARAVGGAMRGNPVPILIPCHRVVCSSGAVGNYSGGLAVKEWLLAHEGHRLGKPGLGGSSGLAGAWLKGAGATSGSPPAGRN
Description: AGT-inactivating activity was determined by 50% inactivation in HT-29 cell free extract upon incubation for 30 min

[2] = molecular target: T1, Methylated-DNA--protein-cysteine methyltransferase (Homo sapiens); conditions: HT-29; remark: listed apart in the source
Description: AGT-inactivating activity was determined by 50% inactivation in HT-29 cells upon incubation for 4 h

SMILES | ED50 [1] | ED50 [2]
Nc1ncc([N+](=O)[O-])c(OCc2ccccc2)n1 | 0.4 µM | 0.05 µM
CC(=O)Nc1nc(OCc2ccccc2)c2[nH]c(O)nc2n1 | 65 µM | 11 µM
Cc1nc2[nH]c(N)nc(OCc3ccccc3)c-2n1 | 0.3 µM | 0.1 µM
CNc1nc(OCc2ccccc2)c2[nH]cnc2n1 | 160 µM | 60 µM
Nc1ncnc(OCc2ccccc2)c1[N+](=O)[O-] | 28 µM | 8 µM
Oc1nc(OCc2ccccc2)c2[nH]c(O)nc2n1 | 25 µM | 45 µM
Nc1nc(OCc2ccccc2)c2[nH]c(O)nc2n1 | 0.3 µM | 0.15 µM
Oc1nc(OCc2ccccc2)c2[nH]cnc2n1 | 60 µM | 35 µM
Nc1nc(OCc2ccccc2)c2[nH]c(Br)nc2n1 | 0.08 µM | 0.06 µM
Fc1nc(OCc2ccccc2)c2[nH]cnc2n1 | 48 µM | 12 µM
CN(C)c1nc(OCc2ccccc2)c2[nH]cnc2n1 | 200 µM | 110 µM
Nc1nc(OCc2ccccc2)c2[nH]c(C(F)(F)F)nc2n1 | 0.4 µM | 0.25 µM

The next lines start with the values.

ED50 [1] | ED50 [2] | SMILES
0.07 µM | 0.06 µM | Nc1nc(OCc2ccccc2)c2[nH]nnc2n1
0.7 µM | 2 µM | Nc1nc(OCc2ccccc2)c2[nH]c(N)nc2n1
2 µM | 0.8 µM | Nc1nc(N)c(Br)c(OCc2ccccc2)n1
15 µM | 5 µM | Nc1cc(OCc2ccccc2)nc(N)n1
4 µM | 1 µM | Nc1nc(N)nc(OCc2ccccc2)n1
0.4 µM | 0.3 µM | Nc1nc(N)c(N)c(OCc2ccccc2)n1
0.4 µM | 0.06 µM | Cc1nc(N)nc(OCc2ccccc2)c1[N+](=O)[O-]
0.06 µM | 0.02 µM | Nc1nc(N)c(N=O)c(OCc2ccccc2)n1
